2 molecules from paper PMC8620715, “Biological Activity of Triazolopyrimidine Copper(II) Complexes Modulated by an Auxiliary N-N-Chelating Heterocycle Ligands” (Molecules, 2021) can be followed below.

Data set [1] has as its system P. aeruginosa 27853. As to the kind of experiment: MIC by broth microdilution. Type of data set: cell-based, Pseudomonas aeruginosa. The note with it: P. aeruginosa 27853, planktonic. As for the experimental part:
(§1) The antibacterial assays were carried out using two Gram-negative (Escherichia coli ATCC 25922, Pseudomonas aeruginosa ATCC 27853) and two Gram-positive (Staphylococcus aureus ATCC 25923, MRSA (meticillin-Resistant S. aureus) 388 (ATCC, American Type Culture Collection) bacteria.
The antimicrobial activity of the two complexes (1) and (2) was assessed using their minimum inhibitory concentration (MIC) by the broth microdilution method, as previously described by the Clinical and Laboratory Standard Institute (CLSI; M07-A9 document). A broth microdilution assay was performed in sterile 96-well plates using Muller-Hinton broth (Scharlau; MHB). The compounds solubilized in […] (1,000 μg/mL) were serially diluted in 90 μL MHB, in concentrations ranging between 500 and 0.97 μg/mL. Overnight cultures were used to prepare suspension in phosphate-buffered saline (pH 7.0) to match a 0.5 McFarland density. The bacterial suspensions were further diluted to 1:100 by adding 0.1 mL of bacterial suspension to 9.9 mL of MHB. A volume of 10 μL of this dilution was added to each well of columns 1–10, containing different concentrations of the tested compounds. […] Additionally, 10 μL of the diluted bacterial suspension was added in column 11 (the growth control). A volume of 100 μL MHB was added to the microtiter plates’ sterility control wells (column 12). After inoculation, the plates were incubated at 35 ± 2 °C for 18 h. Growth was measured as light absorbance (620 nm) in comparison to an uninoculated well (negative control). It was detected using a microtiter plate reader (Apollo LB 911ELISA (Berthold Technologies GmbH & Co. KG, Waltham, MA, USA)). The MIC of each compound was defined as the lowest concentration required to inhibit bacterial growth.
On the technique in general: Broth dilution looks for growth in wells or tubes with falling amounts of substance.

In another data set the test system is λ-DNA/EB adduct. As to the kind of experiment: Quenching of fluorescence of λ-DNA/ethidium bromide adduct. Type of data set: binding, bacteriophage lambda. As to conditions: λ-DNA pre-treated with EB, pH 8. As for the experimental part:
The binding of complexes (1) and (2) to DNA was assayed by monitoring the quenching of fluorescence emitted by λ-DNA/ethidium bromide (EB) adduct (λexcit = 510 nm, maximum emission at λem = 601 nm) in the presence of different concentrations of the tested compounds [68, 69]. The fluorescence spectra were recorded in the range of 550–750 nm using a Thermo Fischer Scientific Varioskan Flash spectral scanning multimode reader (Vantaa, Finland). The spectra were recorded in suitable plates using 5 nm excitation and emission slits for all measurements.
The binding of compounds to λ-DNA was assayed by monitoring the quenching of fluorescence emitted by λ-DNA/ethidium bromide (EB) adduct (λexcit = 510, maximum emission at λem = 601). The λ-DNA solution was added to the EB solution, prepared in the same buffer, then increasing concentrations of compounds were added to EB-DNA [52, 70]. The fluorescence spectra were recorded in the range of 550–750 nm using a Thermo Fischer Scientific Varioskan Flash spectral scanning multimode reader (Vantaa, Finland). The spectra were recorded in suitable plates using 5 nm excitation and emission slits for all measurements.

The subject of data set [2] is P. aeruginosa 27853. As to the kind of experiment: Biofilm formation on polystyrene (crystal violet), MBEC. It counts as cell-based, Pseudomonas aeruginosa. As to conditions: P. aeruginosa 27853, biofilm. As for the experimental part: as §1
The method for assessment of biofilm formation on polystyrene microtiter plates was based on previously published protocols. The absorbance at 490 nm was measured with an Apollo LB 911ELISA (Berthold Technologies GmbH & Co. KG, Waltham, MA, USA) reader. The minimal biofilm-eradication concentration (MBEC) was defined as the lowest concentration of antibiotics required to eradicate the biofilm. All experiments were performed in triplicate.

The subject of another data set is B16 cells. As to the kind of experiment: Lactate dehydrogenase (LDH) release assay, B16 cells. It counts as cell-based, mouse. The procedure: Membrane integrity after peptide treatment was assessed based on LDH release using a CytoTox 96 Non-Radioactive Cytotoxicity Assay (Promega), as previously described. […] Maximal LDH release was obtained by complete cell lysis induced by using 1% of Triton X-100. The absorption resulting from LDH activity was measured in a microplate reader Mithras 940 (Berthold) at 490 nm, and the % LDH was calculated as: [(corrected absorbance of the LDH released in treated cells)/(corrected absorbance of the total LDH released)] * 100%.

The test system of a further data set is BJ cells. As to the kind of experiment: Cell morphology by fluorescence microscopy (phalloidin staining), BJ cells. Type of data set: cell-based, human. As to conditions: 24 h. As for the experimental part:
The morphological changes induced by the treatment of the BJ and B16 cell lines with the tested compounds at two different concentrations (2.5 and 10 µg/mL) applied for 24 h were investigated by fluorescence microscopy.
According to the manufacturer protocol, the cytoskeleton actin filaments of BJ and B16 cells were stained with phalloidin-FITC (Sigma-Aldrich, St. Louis, MO, USA). Briefly, cells were washed with PBS (5 min, 3 times), fixed for 5 min with 3% paraformaldehyde, washed three times with PBS, permeabilized with 0.1% Triton X-100 in PBS for 15 min, washed three times with PBS, stained with 20 μg/mL phalloidin-FITC at room temperature for 1 h and rewashed three times with PBS. The cell nucleus was stained with 8 μM of Hoechst 33342 solution for 10 min, washed three times with PBS, and finally, mounted and sealed on glass slides with FluorSave™ Reagent (Merck Millipore, Germany). The fluorescence images were acquired using an Andor DSD2 Confocal Unit (Andor, Ireland), mounted on an epifluorescence microscope, Olympus BX-51 (Olympus, Germany), equipped with a 40x and 100x objective and an appropriate DAPI/Hoechst filter cube (excitation filter 390/40 […], dichroic mirror 405 nm and emission filter 452/45 nm) and GFP/FITC filter cube (excitation filter 466/40 nm, dichroic mirror 488 nm and emission filter 525/54 nm).

Each structure is given as a SMILES string.

The term MIC denotes the least concentration at which growth counts as inhibited. Low values mean a more susceptible organism, high ones a less susceptible organism. Take `Cc1cc(C)n2ncnc2n1.Cc1cc(C)n2ncnc2n1.Cc1cc(C)n2ncnc2n1.O.[Cu+2].[O-][Cl+3]([O-])([O-])[O-].[O-][Cl+3]([O-])([O-])[O-].c1cnc2c(c1)ccc1cccnc12` [Complex (2), [Cu(phen)(dmtp)2(OH2)](ClO4)2·dmtp]: the MIC in the data set with P. aeruginosa 27853 [1] was 690 µM. For the same molecule, the “fluorescence of λ-DNA/EB adduct on adding complex” value in the data set with λ-DNA/EB adduct is recorded as “fluorescence intensity decreased”. The molecule also returned an MBEC in the data set on P. aeruginosa 27853 [2] of 0.69 mM. Besides, the LDH release with B16 cells (B16, 24 h) was determined as 60%; in the data set on B16 cells (B16, 48 h), 100%. Moreover, in the data set with BJ cells (10 μg/mL (11.05 µM)), the “morphological changes of BJ cells” value was “affected the cellular morphology”.
The molecule `Cc1cc(C)n2ncnc2n1.Cc1cc(C)n2ncnc2n1.Cc1cc(C)n2ncnc2n1.O.[Cu+2].[O-][Cl+3]([O-])([O-])[O-].[O-][Cl+3]([O-])([O-])[O-].c1ccc(-c2ccccn2)nc1` [Complex (1), [Cu(bpy)(dmtp)2(OH2)](ClO4)2·dmtp] gave an MIC against P. aeruginosa 27853 [1] of 710 µM. In addition, in the data set with λ-DNA/EB adduct, the “fluorescence of λ-DNA/EB adduct on adding complex” value was “fluorescence intensity decreased”. In the data set on P. aeruginosa 27853 [2], this molecule returned an MBEC of 0.71 mM. In addition, the “membrane integrity (LDH release)” value with B16 cells (B16, 24 h and 48 h) is listed as “did not affect the membrane integrity”. For the same molecule, in the data set on BJ cells (2.5 and 10 µg/mL), the “morphological changes of BJ cells” value is “no effect was observed”.
